SMILES strings stand for the structures.

Consider one compound from patent US7445931B2, “Compositions and methods for enrichment of neural stem cells using ceramide analogs” (Bresagen, Inc., priority 2002, dated 2008).

One test relates to differentiating ES cells. Put plainly: Apoptosis (TUNEL) in ceramide-depleted differentiating ES cells and its restoration by ceramide or analogs. It is filed as cell-based, mouse. The procedure:
Fumonisin B1 (FB1) or myriocin-treated (ceramide-depleted) differentiating ES cells were incubated with natural ceramide. To prepare the natural ceramide, 50 mg of EBs or NPs were resuspended in 500 μl of water, and after phase separation with 500 μl of CHCl3/CH3OH (1:1 by vol.) the neutral lipids were recovered from the lower phase. The neutral lipids were evaporated to dryness with a gentle stream of nitrogen and redissolved in 1 ml of CHCl3. The solution was applied to a silicic acid gel column (0.5 g) and fatty acids and cholesterol washed out with another 15 ml of CHCl3 (Dasgupta and Hogan, 2001 J. Lipid Res., 42:301-308). The ceramide fraction was then eluted with 20 ml of CHCl3/acetone (9:1, by vol.), evaporated to dryness, and the residue (approximately 6 nmoles of ceramide) dissolved in 20 μl of ethanol containing 2% dodecane (vol./vol.). Aliquots of 5 μl were mixed with 1 ml of medium, yielding a final concentration of 1.5 μM natural ceramide for induction of apoptosis (Ji et al., 1995 FEBS Lett., 358:211-214).
Differentiating ES cells at the EB8 cells were dissociated and grown for 24 hours on laminin/ornithin-coated cover slips (NP1 stage) in DMEM/F12 (50/50), supplemented with 1×N2 and 20 ng/ml FGF-2. Cells were incubated for 3 hours with 10 μM bromodeoxyuridine (BrdU) and the TUNEL assay or immunostainings performed after 5 hours of incubation. For immunostaining, cells were fixed with 4% paraformaldehyde in phosphate-buffered saline (PBS). Fixed cells were permeabilized with 0.2% Triton X-100 in PBS for 5 minutes at room temperature and immunostaining performed as described previously (Bieberich et al., 2001 J. Biol. Chem., 276:44396-44404). The nuclei were stained by treatment with 2 μg/ml Hoechst 33258 in PBS for 30 minutes at room temperature. Apoptotic nuclei were stained using the fluorescein FragEL TUNEL assay according to instructions of the manufacturer (Oncogene).
The degree of apoptosis in differentiating ES cultures was determined since it was previously proposed that ceramide elevation induces apoptosis in NPs (Bieberch et al., 2001 J. Biol. Chem., 276:44396-44404). […] Apoptosis was elevated at the EB8 stage ([…]), and was highest at the NP2 stage (35+/−5%). […] Apoptosis was restored by the addition of 30 μM N-acetyl sphingosine (C2-ceramide), 80 μM of the novel ceramide analog N-oleoyl serinol (S18), or 1 μM of natural ceramide that was extracted from differentiating ES cells.

Test [1] has as its system differentiating ES cells (NPs), PAR-4. Put plainly: S18-induced apoptosis (TUNEL) in NPs after PAR-4 antisense knockdown or PAR-4-RFP overexpression. It is filed as cell-based, mouse. The procedure:
For construction of PAR-4-REP cDNA, RT-PCR was performed with the oligonucleotide primer pair sense 5′atggcgaccggcggctatcg3′ (SEQ ID NO:14) and antisense 5′ctaccttgtcagctgcccaacaac3′(SEQ ID NO:15), using the first strand cDNA generated from embryoid bodies (EB8 stage) as template for the amplification reaction. The primers were endowed with the restriction enzyme cleaving sites Eco47III (sense) and SaII (antisense) for ligation of the PAR-4 specific amplification product into the multiple cloning site of HcRFP, a vector that encodes a far-red shifted variant of red fluorescent protein (Clontech). Differentiating ES cells at the NP1 stage were transfected with the PAR-4-RFP construct using the lipofectamine 2000 procedure according to the manufacturer's instructions (Invitrogen). The transfected cells were incubated in DMEM F12 (50/50), supplemented with 1×N2 and 20 ng/ml FGF-2, and the TUNEL assay or immunostainings were performed after 48 hours of incubation and NP formation. For depletion of ceramide, differentiating ES cell were incubated with 25 μM fumonisin B1 or 50 nM myriocin 48 hours prior to transfection with the PAR-4-RFP vector, and the inhibitor maintained in the medium throughout the post-transfection period. For induction of apoptosis, the novel ceramide analog S18 (40-100 μM), N-acetyl sphingosine (C2-ceramide, 10-30 μM), or natural ceramide isolated from EBs (0.5-1.5 μM) was added 48 hours after transfection with the PAR-4-RFP cDNA, and the degree of apoptosis quantified after 15-20 hours using TUNEL assays with paraformaldehyde-fixed cells as described above.
Endogenous expression of PAR-4 was suppressed by transfection of differentiating ES cells at the NP1 stage with 2 nmoles (per well in 24 wells plate) of the morpholino-based antisense oligonucleotide 5′cgatagccgccggtcgccatgttcc3′(SEQ ID NO:16) (see Guo et al., 1998, Nature Med., 4:957-962; Guo et al., 2001 Brain Res, 903:13-25) following the instructions of the manufacturer (GeneTools) in 0.5 ml of serum-free DMEM/F-12, 1XN2 supplemented with 20 ng/ml FGF-2. For induction of apoptosis, the novel ceramide analog S18 (40-100), N-acetyl sphingosine (C2 ceramide, […], or natural ceramide isolated from EBs (0.5-1.5 μM) was added 48 hours after transfection with the anti-PAR-4 morpholino, and the degree of apoptosis quantified after 15-20 hours using TUNEL assays with paraformaldehyde-fixed cells as described above.

[2] abbreviates: FB1-treated cells at the NP2 stage.

Regarding `CCCCCCCC/C=C\CCCCCCCC(=O)NC(CO)CO` [S18, N-(2-hydroxy-1-(hydroxymethyl)ethyl)-oleoylamide], in the test with differentiating ES cells (setting [2]), the “dependence of apoptosis on PAR-4 expression” value is “only seen in cells that expressed PAR-4” and the “number of PAR-4 positive cells” value is on record as “did not alter the number of PAR-4 positive cells”. Also, the “restoration of apoptosis in FB1-treated cells” value with differentiating ES cells (NP2 stage, 30 μM C2-ceramide, 80 μM S18, or 1 μM natural ceramide) was “restored”. The “concentration of endogenous ceramide” value with differentiating ES cells (S18 incubation of FB1-treated cells at the NP2 stage) is “did not alter the concentration of endogenous ceramide”. For the same compound, the “ceramide analog-induced apoptosis in untransfected or mock (RFP)-transfected cells” value in test [1] (40 μM S18) is “no or only a low degree”. The “number of apoptotic cells” value in test [1] (80 μM S18, control morpholino-transfected and untransfected NPs) was “more than 80%”. For the same compound, the “apoptosis in PAR-4-RFP transfected cells” value in test [1] (myriocin-treated ES cells transfected at NP1 stage, 40 μM S18) is “apoptosis was observed”.
